Source: patent US20210221808A1, “3-OXAZOLINONE COMPOUND, PREPARATION METHOD THEREFOR AND PHARMACEUTICAL APPLICATION THEREOF” (Beijing Innocare Pharma Tech Co., Ltd., priority 2018, published 2021)

Molecular target: T1, indoleamine 2,3-dioxygenase (IDO) activity in Hela cells (Homo sapiens, UniProt P14902)
T1 construct: a certain concentration of IFN-γ can induce Hela cells to express IDO; host or cells: HeLa cells induced with IFN-γ
Assay: IDO Intracellular Activity Inhibition Test (Ehrlich method, IFN-γ induced Hela cells)
Type: cell-based
Details: IDO activity in Hela cells induced by IFN-γ, 24 hours incubation, OD490
Protocol: IDO Intracellular Activity Inhibition Test
The effect of the compound of the present invention on the indoleamine 2,3-dioxygenase (IDO) activity in Hela cells induced by IFN-γ was evaluated by the Ehrlich method.
The principle underlined for this experiment is summarized as follows: The expression of IDO in Hela cells is low in the absence of any induction. However, a certain concentration of IFN-γ can induce Hela cells to express IDO, so that it can catalyze the production of N-formylkynurenine from tryptophan. The produced N-formylkynurenine can be hydrolyzed by trichloroacetic acid to kynurenine, then a color reaction of the achieved kynurenine with Ehrlich reagent can be used to detect the activity of IDO. The absorbance at 490 nm (OD490) is in proportion to the activity of IDO.
The compound was dissolved and diluted to 5 mM with DMSO (Sigma, catalog number: D5879), then serially diluted in 3 folds each time with DMSO to a minimum concentration of 2.29 μM. The diluent at each concentration point was further diluted in 50 folds with DMEM medium (ThermoFisher, catalog number: 11995073) free of FBS. If the IC50 value of the compound was very low, the initial concentration of the compound could be lowered. Hela cells (ATCC, catalog number CCL-2) were cultured in DMEM complete medium containing 10% FBS (GBICO, catalog number 10099-141) and 100 U/mL penicillin streptomycin mixture (ThermoFisher, catalog number 15140122). When the cell coverage in the culture vessel reached 80-90%, 0.25% pancreatin (containing EDTA) (ThermoFisher, catalog number 25200056) was used to digest and blow off the cells, and the cells were grown in a 96-well plate (Corning, catalog number 3599), 30,000 cells per well (80 μL DMEM medium). The 96-well plate was then incubated in an incubator (37° C., 5% CO2) overnight (18-20 hours).
10 μL of DMEM diluted compound and 10 μL of 500 ng/mL INF-γ were added to each well, and mixed gently. The 96-well plate was placed into an incubator (37° C., 5% CO2) for further incubation. The mixture was taken out and centrifuged at 2000×g at room temperature for 5 minutes after 24 hours of incubation, the supernatant was transferred to the reaction plate (Sigma, catalog number CLS3695), one-twentieth of trichloroacetic acid (Sigma, product number T9159) was added, and incubated at 60° C. after mixed well. 30 minutes later, the reaction plate was taken out and centrifuged at 2000×g at room temperature for 5 minutes, the supernatant was transferred to a clean reaction plate, equal volume of Ehrlich reagent was added, and the mixture was incubated at room temperature after mixed well. The OD490 of each well was determined 5 minutes later.
In the experiment, OD490 of the DMEM medium control group without IFN-γ was used as OD490100% inhbition; OD490 of the group in which the final concentration of IFN-γ in DMSO was 0.2% was used ads OD4900% inhbition.
The percent inhibition of IDO activity in Hela cells by a compound can be calculated by the following formula: […]
IC50 of a compound was calculated by the following formula using 8 concentration points and XLfit (ID Business Solutions Ltd., UK) software
Y=Bottom+(Top−Bottom)/(1+10^((log IC50−X)*slope factor))
where Y is inhibition percentage. Bottom is the bottom plateau of the S-type curve, Top is the top plateau of the S-type curve, X is the logarithm of the concentration of the tested compound, and slope factor is the slope coefficient of the curve.

T1 sequence (P14902 whole entry): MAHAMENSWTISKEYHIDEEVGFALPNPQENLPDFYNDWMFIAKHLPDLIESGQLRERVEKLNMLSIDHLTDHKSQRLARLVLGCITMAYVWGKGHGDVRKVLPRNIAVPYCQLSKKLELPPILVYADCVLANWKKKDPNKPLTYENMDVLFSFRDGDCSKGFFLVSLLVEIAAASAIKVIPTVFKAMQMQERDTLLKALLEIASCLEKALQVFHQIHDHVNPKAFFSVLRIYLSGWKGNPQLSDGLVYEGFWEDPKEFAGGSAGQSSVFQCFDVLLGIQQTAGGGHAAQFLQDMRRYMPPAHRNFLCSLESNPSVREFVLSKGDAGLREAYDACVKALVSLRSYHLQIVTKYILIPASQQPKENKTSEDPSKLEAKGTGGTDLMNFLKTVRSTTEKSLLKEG

Compound	IC50
O=c1c2ccc(Cl)cc2[nH]n1C[C@H]1CC[C@H](c2ccnc3ccc(F)cc32)CC1 [Compound 1, 6-chloro-2-(((1r,4r)-4-(6-fluoroquinolin-4-yl)cyclohexyl)methyl)-1,2-dihydro-3H-indazol-3-one]	0.05 to 0.2 µM
O=c1c2ccc(Cl)cc2[nH]n1C[C@H]1CC[C@@H](c2ccnc3ccc(F)cc32)CC1 [Compound 2, 6-chloro-2-(((1s,4s)-4-(6-fluoroquinolin-4-yl)cyclohexyl)methyl)-1,2-dihydro-3H-indazol-3-one]	< 0.05 µM
CC([C@H]1CC[C@H](c2ccnc3ccc(F)cc32)CC1)n1[nH]c2cc(Cl)ccc2c1=O (stereo partly shown) [Compound 3, 6-chloro-2-(1-((1r,4r)-4-(6-fluoroquinolin-4-yl)cyclohexyl)ethyl)-1,2-dihydro-3H-indazol-3-one]	0.05 to 0.2 µM
CC([C@H]1CC[C@@H](c2ccnc3ccc(F)cc32)CC1)n1[nH]c2cc(Cl)ccc2c1=O (stereo partly shown) [Compound 4, 6-chloro-2-(1-((1s,4s)-4-(6-fluoroquinolin-4-yl)cyclohexyl)ethyl)-1,2-dihydro-3H-indazol-3-one]	< 0.05 µM
Cc1cc([C@H]2CC[C@@H]([C@@H](C)n3[nH]c4cc(Cl)ccc4c3=O)CC2)ccn1 [Compound 5, 6-chloro-2-((R)-1-((1s,4S)-4-(2-methylpyridin-4-yl)cyclohexyl)ethyl)-1,2-dihydro-3H-indazol-3-one]	< 0.05 µM
C[C@H]([C@H]1CC[C@@H](c2ccnc3ccc(F)cc32)CC1)n1[nH]c2cc(Cl)ccc2c1=O [Compound 6, 6-chloro-2-((R)-1-((1s,4S)-4-(6-fluoroquinolin-4-yl)cyclohexyl)ethyl)-1,2-dihydro-3H-indazol-3-one]	< 0.05 µM
C[C@H]([C@H]1CC[C@@H](c2ccnc3ccc(F)cc32)CC1)n1[nH]c2ccc(Cl)cc2c1=O [Compound 7, 5-chloro-2-((R)-1-((1s,4S)-4-(6-fluoroquinolin-4-yl)cyclohexyl)ethyl)-1,2-dihydro-3H-indazol-3-one]	< 0.05 µM
C[C@H]([C@H]1CC[C@@H](c2ccnc3ccc(F)cc32)CC1)n1[nH]c2cc(Cl)cnc2c1=O [Compound 8, 6-chloro-2-((R)-1-((1s,4S)-4-(6-fluoroquinolin-4-yl)cyclohexyl)ethyl)-1,2-dihydro-3H-pyrazolo[4,3-b]pyridin-3-one]	< 0.05 µM
C[C@H]([C@H]1CC[C@@H](c2ccnc3ccc(F)cc32)CC1)n1[nH]c2ncc(Cl)cc2c1=O [Compound 9, 5-chloro-2-((R)-1-((1s,4S)-4-(6-fluoroquinolin-4-yl)cyclohexyl)ethyl)-1,2-dihydro-3H-pyrazolo[3,4-b]pyridin-3-one]	< 0.05 µM
C[C@H]([C@H]1CC[C@@H](c2ccnc3ccc(F)cc32)CC1)n1[nH]c2cc(Cl)c(Cl)cc2c1=O [Compound 10, 5,6-dichloro-2-((R)-1-((1s,4S)-4-(6-fluoroquinolin-4-yl)cyclohexyl)ethyl)-1,2-dihydro-3H-indazol-3-one]	< 0.05 µM
C[C@H]([C@H]1CC[C@@H](c2ccnc3ccc(F)cc32)CC1)n1[nH]c2ccc(Br)cc2c1=O [Compound 11, 5-bromo-2-((R)-1-((1s,4S)-4-(6-fluoroquinolin-4-yl)cyclohexyl)ethyl)-1,2-dihydro-3H-indazol-3-one]	< 0.05 µM

Molecular target: T2, plasma IDO activity (Mus musculus, UniProt P28776)
T2 construct: host or cells: mice, in vivo
Assay: not given
Details: single administration, blank mice; cited from earlier work

T2 sequence (P28776 whole entry): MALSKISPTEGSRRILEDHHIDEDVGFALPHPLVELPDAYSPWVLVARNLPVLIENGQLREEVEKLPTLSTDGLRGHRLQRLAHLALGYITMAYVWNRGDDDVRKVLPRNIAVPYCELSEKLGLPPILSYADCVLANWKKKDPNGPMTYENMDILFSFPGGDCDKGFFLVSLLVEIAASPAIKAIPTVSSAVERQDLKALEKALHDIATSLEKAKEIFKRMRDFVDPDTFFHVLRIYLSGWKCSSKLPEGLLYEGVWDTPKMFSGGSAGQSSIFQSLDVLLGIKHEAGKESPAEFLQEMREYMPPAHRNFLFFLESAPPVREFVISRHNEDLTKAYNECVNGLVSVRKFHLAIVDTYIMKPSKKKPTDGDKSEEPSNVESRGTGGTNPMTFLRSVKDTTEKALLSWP

Compound	inhibition of plasma IDO activity
NS(=O)(=O)NCCNc1nonc1C(=NO)Nc1ccc(F)c(Br)c1 [INCB-024360]	effectively inhibit the plasma IDO activity of blank mice to be at the level of IDO-deficient mice

Test system: CT26 tumors
Assay: not given
Details: repeated administration; cited from earlier work

Compound	expansion of CT26 tumors
NS(=O)(=O)NCCNc1nonc1C(=NO)Nc1ccc(F)c(Br)c1 [INCB-024360]	hinders the expansion of CT26 tumors
